Measured values taken from patent US10738028B2, “Spiro three-membered ring, spiro five-membered ring peptide deformylase inhibitor and use thereof in antibacteria and anti-tumor” (priority 2016, dated 2020).
Where two headings read alike, the source gives them in different places.

Tests used:
Format in all cases: cell-based
[1] = tested on: HCT-116 colorectal cancer cell line; assay: CCK-8 proliferation inhibition; details: Homo sapiens, HCT-116, 72 h, concentration of 30 μM, 72 hours, CCK-8
In short: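 HCT-116 cells, seeded at 2000 cells/well in McCoy's 5A with 10% newborn bovine serum, were cultured overnight at 37° C., 5% CO2, then exposed to compound dilutions in medium for 72 hours. Viability was read with 1:10 diluted CCK-8; controls received 1‰ DMSO.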

[2] = tested on: Enterococcus faecalis (EFA); assay: MIC, two-fold agar dilution (CLSI), clinical isolates
In short: (§1)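 Following the American Clinical and Laboratory Standards Institute procedure, agar two-fold dilution served to determine minimum inhibitory concentrations.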

[3] = tested on: methicillin-sensitive Staphylococcus epidermidis (MSSE); assay: as above
In short: as §1

[4] = tested on: Enterococcus faecium (EFM); assay: as above
In short: as §1

[5] = tested on: Streptococcus pneoumoniae (SPN); assay: as above
In short: as §1

[6] = tested on: methicillin-resistant Staphylococcus aureus (MRSA); assay: as above
In short: as §1

[7] = tested on: Moraxella catarrhalis (BCA); assay: as above
In short: as §1

[8] = tested on: methicillin-resistant Staphylococcus epidermidis (MRSE); assay: as above
In short: as §1

[9] = tested on: methicillin-sensitive Staphylococcus aureus (MSSA); assay: as above
In short: as §1

[10] = tested on: Escherichia coli (including ESBLs, non-ESBLs); assay: as above
In short: as §1

[11] = tested on: A549 lung cancer cell line; assay: CCK-8 proliferation inhibition; details: Homo sapiens, A549, 72 h, concentration of 30 μM
Source text: (§2) 2. The present invention adopts the CCK-8 method to determine the proliferation inhibition effect of the spiro three-membered ring, spiro five-membered ring peptide deformylase inhibitor as described in Examples 1-80 against colorectal cancer cells, lung cancer cells, gastric cancer cells, liver cancer cells, and the like. […] The compound having the best activity synthesized in Example 64 was further tested for its inhibitory activity against other tumor cells including T cell leukemia, acute myeloid leukemia, cervical cancer, breast cancer, prostate cancer and osteosarcoma, and the like (see Table 7).
(§3) (1) HCT-116 colorectal cancer cell line, A549 lung cancer cell line, MGC-803 gastric cancer cell line, BEL-7402 liver cancer cell line, Jurkat T cell leukemia cell line, HL60 acute myeloid leukemia cell line, Hela cervical cancer cell line, MCF-7 breast cancer cell line, PC3 prostate cancer cell line and SAOS-2 osteosarcoma cell line were made into single cell suspension, 180 μL of which was inoculated into 96-well culture plate, which was cultured overnight in CO2 incubator (37° C., 5% CO2, 95% air).
(§4) (2) Each of the spiro three-membered ring, spiro five membered ring peptide deformylase inhibitors was dissolved in DMSO, and was further formulated into drug solution with required different final concentration using corresponding cell culture medium. The drug solutions were added to the above cells respectively (20 μL/well), with the control group added with 1‰ DMSO, and cultured in a CO2 incubator for 72 hours.
(§5) (3) After incubation for 72 hours, the culture solution was decanted, and 100 μL of 1:10 diluted CCK-8 solution was added.
(§6) Wherein, in step (1), the concentration of the single cell suspension was 2000 cells/well.
(§7) Wherein, in step (2), HCT-116 cells were cultured in McCoy's 5A medium (containing 10% newborn bovine serum, 1% double antibody); A549 and PC3 cells were cultured in F12 medium (containing 10% newborn bovine serum, 1% double antibody); MGC-803, BEL-7402, SAOS-2, Jurkat and HL60 cells were cultured in 1640 medium (containing 10% newborn bovine serum, 1% double antibody); and MCF-7 and Hela cells were cultured in DMEM high glucose medium (containing 10% newborn bovine serum, 1% double antibody).

[12] = tested on: BEL-7402 liver cancer cell line; assay: CCK-8 proliferation inhibition; details: concentration of 30 μM
Source text: as §2, §3, §4, §5, §6, §7

[13] = tested on: MGC-803 gastric cancer cell line; assay: CCK-8 proliferation inhibition; details: Homo sapiens, MGC-803, 72 h, concentration of 30 μM
Source text: as §2, §3, §4, §5, §6, §7

O=CN(O)C[C@@H](CC1CCCC1)C(=O)N1CC2(CC2)C[C@H]1C(=O)Nc1ccc(N2CCOCC2)cc1 [Example 25, (S)-5-((R)-3-cyclopentyl-2-((N-hydroxyformamido)methyl)propionyl)-N-(4-morpholinophenyl)-5-spiro[2.4]heptane-6-carboxamide]
0.06 µg/mL: MIC (anti-bacterial activity) ([8]; strain MRSE 15-1)
35%: inhibition at 30 µM ([1]; read-out: HCT116 inhibition rate/%)
0.25 µg/mL: MIC (anti-bacterial activity) ([3]; strain MSSE 15-3) | MIC (anti-bacterial activity) ([3]; strain MSSE 15-4) | MIC (anti-bacterial activity) ([3]; strain MSSE 15-5) | MIC (anti-bacterial activity) ([3]; strain MSSE 15-6) | MIC (anti-bacterial activity) ([4]; strain EFM 15-4) | MIC (anti-bacterial activity) ([6]; strain MRSA 15-1) | MIC (anti-bacterial activity) ([6]; strain MRSA 15-2) | MIC (anti-bacterial activity) ([6]; strain MRSA 15-3) | MIC (anti-bacterial activity) ([6]; strain MRSA 15-4) | MIC (anti-bacterial activity) ([7]; strain BCA 14-4) | MIC (anti-bacterial activity) ([7]; strain BCA 14-7) | MIC (anti-bacterial activity) ([7]; strain BCA 14-8) | MIC (anti-bacterial activity) ([7]; strain BCA 14-10) | MIC (anti-bacterial activity) ([8]; strain MRSE 15-2) | MIC (anti-bacterial activity) ([8]; strain MRSE 15-3) | MIC (anti-bacterial activity) ([8]; strain MRSE 15-7) | MIC (anti-bacterial activity) ([9]; strain MSSA 15-3) | MIC (anti-bacterial activity) ([9]; strain MSSA 15-4) | MIC (anti-bacterial activity) ([9]; strain MSSA 15-5) | MIC (anti-bacterial activity) ([9]; strain MSSA 15-6)
32 µg/mL: MIC (anti-bacterial activity) ([10]; strain ECO+ 15-1)
65%: Inhibition of proliferation, Liver cancer BEL-7402 ([12]; 72 hours, 30 µM)
0.5 µg/mL: MIC (anti-bacterial activity) ([2]; strain EFA 15-3) | MIC (anti-bacterial activity) ([4]; strain EFM 15-2) | MIC (anti-bacterial activity) ([4]; strain EFM 15-3) | MIC (anti-bacterial activity) ([4]; strain EFM 15-5) | MIC (anti-bacterial activity) ([5]; strain SPN 16-2) | MIC (anti-bacterial activity) ([7]; strain BCA 14-1) | MIC (anti-bacterial activity) ([7]; strain BCA 14-5)
> 32 µg/mL: MIC (anti-bacterial activity) ([10]; strain ECO+ 15-2) | MIC (anti-bacterial activity) ([10]; strain ECO+ 15-3) | MIC (anti-bacterial activity) ([10]; strain ECO+ 15-4) | MIC (anti-bacterial activity) ([10]; strain ECO− 15-1) | MIC (anti-bacterial activity) ([10]; strain ECO− 15-2) | MIC (anti-bacterial activity) ([10]; strain ECO− 15-3) | MIC (anti-bacterial activity) ([10]; strain ECO− 15-4)
30%: inhibition at 30 µM [11]
2 µg/mL: MIC (anti-bacterial activity) ([2]; strain EFA 15-1) | MIC (anti-bacterial activity) ([2]; strain EFA 15-2) | MIC (anti-bacterial activity) ([2]; strain EFA 15-4) | MIC (anti-bacterial activity) ([2]; strain EFA 15-5) | MIC (anti-bacterial activity) ([2]; strain EFA 15-6) | MIC (anti-bacterial activity) ([2]; strain EFA 15-9) | MIC (anti-bacterial activity) ([5]; strain SPN 16-4)
≥ 30%: inhibition at 30 µM ([1]; Table 5, read-out: Inhibition of proliferation, Colorectal cancer HCT116)
27%: inhibition at 30 µM [13]
> 50%: inhibition at 30 µM ([12]; Homo sapiens, Bel-7402, 72 h)
1 µg/mL: MIC (anti-bacterial activity) ([4]; strain EFM 15-1) | MIC (anti-bacterial activity) ([4]; strain EFM 15-6) | MIC (anti-bacterial activity) ([7]; strain BCA 14-6)
